Data reported in PMC9616048, “Thermal proteome profiling reveals Haemonchus orphan protein HCO_011565 as a target of the nematocidal small molecule UMW-868” (Frontiers in Pharmacology, 2022).

Experiments:
[1] = test system: H. contortus xL3 to L4 development; experiment: High throughput screen, larval development and phenotype at 168 h; format: cell-based, Haemonchus contortus; settings: for inhibition at 20 µM: Haemonchus contortus, development to L4; for Abnormal phenotype detected at 168 h: 20 µM
Protocol: Following the measurement of xL3 motility, plates were incubated again for 78 h (i.e., a total of 168 h) under the same conditions. Thereafter, 40 µl of 1% (v/v) iodine were added to individual wells, and worms examined using a light microscope (M80, Leica) at 60-times magnification to assess larval development, based on the presence/absence of a well-developed pharynx ([Sommerville, 1966]), and/or phenotypic alterations with respect to untreated xL3s.

[2] = test system: exsheathed third-stage larvae (xL3s) of H. contortus; experiment: High throughput screen, xL3 motility (infrared light beam-interference); format: cell-based; settings: Haemonchus contortus, 90 h, read-out: Motility reduction at 90 h (%)
Protocol: An established platform was used for compound screening ([Taki et al., 2021a]). Using a semi-automated liquid handling robot (VIAFLO ASSIST PLUS, Integra Biosciences), compounds were individually diluted to […] in LB* containing 0.2% (v/v) DMSO and then dispensed in 20 µl into the wells of sterile 384-well flat bottom microtitre plates (cat. no. 3680; Corning); 320 compounds were arrayed on each plate, with 16 wells being negative controls (with LB* + 0.2% DMSO) and four wells containing each monepantel (Zolvix; Elanco), moxidectin (Cydectin; Virbac), monepantel + abamectin (Zolvix Plus; Elanco) and compound MIPS-0018666 (abbreviated here as M-666) ([Le et al., 2018]) as positive controls (20 µM). Following the dilution and dispensing of compounds into plates, 80 H. contortus xL3s in 20 μl of LB* were transferred to individual wells; after this step, the final concentrations were 20 µM of test- or positive-control compound, and 0.2% of DMSO. During dispensing, xL3s were maintained in a homogenous suspension using a constant stream of bubbles produced employing an aquarium pump (H2Pro). Plates containing H. contortus xL3s were incubated at 38 °C, 10% (v/v) CO2 and >90% relative humidity.
After 90 h of incubation with compounds (20 μM), H. contortus xL3s motility was measured for 15 min in individual wells of each plate by infrared light beam-interference ([Simonetta and Golombek, 2007]) using a WMicroTracker ONE instrument (Phylumtech). Raw data captured were normalised against measurements obtained for the positive (monepantel) and negative (LB* + 0.2% DMSO) controls to remove plate-to-plate variation by calculating the percentage of motility using the program GraphPad Prism (v.9.1.2; GraphPad Software). A compound was considered active (“hit”) if it reduced larval motility by ≥ 70%. To continually assess the performance of the screening assay, the Z′-factor ([Zhang et al., 1999]) was calculated (using data for the DMSO and the M-666 controls) for individual plates (n = 43) and was consistently ≥0.7; reliable assays achieve a Z′-factor of between 0.5 and 1. The signal to background (S/B) ratio (for the same controls) ([Sui and Wu, 2007]) was consistently >200.

SMILES | inhibition at 20 µM [1] [%] | inhibition at 20 µM [2] [%] | Abnormal phenotype detected at 168 h [1]
N#CC(C#N)=NNc1ccc(C(F)(F)F)cc1 [MBHF-hit1, 2-{2-[4-(trifluoromethyl)phenyl]hydrazono}malononitrile] | 100 | 102 | –
C(#Cc1ccc(-c2cc[nH]n2)s1)c1ccccc1 [MBHF-hit2, 3-[5-(2-phenyleth-1-ynyl)-2-thienyl]-1H-pyrazole] | 100 | 98.4 | Cur, Evi
CC(=NOc1nc(-c2ccccc2)ns1)c1cccs1 [MBHF-hit3, 1-(2-thienyl)-1-ethanone O-(3-phenyl-1,2,4-thiadiazol-5-yl)oxime] | < 80 | 96.4 | Cur, Evi
CCCCOc1ccc(-c2ccc(C#N)cc2)cc1 [MBHF-hit4, 4'-butoxy[1,1'-biphenyl]-4-carbonitrile] | 100 | 95.6 | Cur, Evi
N#CC(=NNc1ccc(Cl)cc1Cl)C(=O)c1ccc(Cl)cc1 [MBHF-hit5, 3-(4-chlorophenyl)-2-[2-(2,4-dichlorophenyl)hydrazono]-3-oxopropanenitrile] | 100 | 95.2 | –
C(#Cc1ccc(-c2ccn[nH]2)cc1)c1ccccc1 [MBHF-hit6, 5-[4-(2-phenyleth-1-ynyl)phenyl]-1H-pyrazole] | 100 | 94 | Cur, Evi
CSc1c(-c2ccc(Cl)cc2)[nH]c2ccccc12 [MBHF-hit7, 2-(4-chlorophenyl)-3-(methylthio)-1H-indole] | 100 | 91.9 | Cur, Evi
N#Cc1c(Cl)c(Cl)c(Cl)c(Cl)c1C#N [MBHF-hit8, 3,4,5,6-tetrachlorophthalonitrile] | < 80 | 91 | –
O=C(C=CSc1ccc(Cl)cc1)c1cccs1 [MBHF-hit9, 3-[(4-chlorophenyl)thio]-1-(2-thienyl)prop-2-en-1-one] | 100 | 89.4 | –
O=C(c1cc(C(F)(F)F)cc(C(F)(F)F)c1)N1CCC(O)(c2ccc(Cl)cc2)CC1 [MBHF-hit10, [3,5-bis(trifluoromethyl)phenyl][4-(4-chlorophenyl)-4-hydroxypiperidino]methanone] | < 80 | 84.2 | –
Nc1ccccc1C(=O)N1CCN(c2ccc([N+](=O)[O-])cn2)CC1 [MBHF-hit11, (2-aminophenyl)[4-(5-nitro-2-pyridyl)piperazino]methanone] | < 80 | 82.7 | –
O=C(Nc1ccc(F)cc1)Nc1cnn(-c2ccc([N+](=O)[O-])cc2)c1C(F)(F)F [MBHF-hit12, N-(4-fluorophenyl)-N'-[1-(4-nitrophenyl)-5-(trifluoromethyl)-1H-pyrazol-4-yl]urea] | 80 to 99 | 82.3 | Cur, Evi
CC1=CSC(=C(C#N)C(=O)c2ccccc2Cl)N1c1ccccc1Cl [MBHF-hit13, 3-(2-chlorophenyl)-2-[3-(2-chlorophenyl)-4-methyl-1,3-thiazol-2(3H)-ylidene]-3-oxopropanenitrile] | < 80 | 78.8 | –
Cc1ccc2oc(=O)n(CCC(N)=NOC(=O)c3ccccc3)c2c1 [MBHF-hit14, N'-(benzoyloxy)-3-[5-methyl-2-oxo-1,3-benzoxazol-3(2H)-yl]propanimidamide] | < 80 | 81.6 | –
NC(=O)C1CCN(C(=O)c2ccc(Oc3cc(Cl)cc(Cl)c3)o2)CC1 [MBHF-hit15, 1-{[5-(3,5-dichlorophenoxy)-2-furyl]carbonyl}-4-piperidinecarboxamide] | < 80 | 78.7 | –
COc1ccc(SCc2nsc(Sc3ccc(OC)cc3)n2)cc1 [MBHF-hit16, 5-[(4-methoxyphenyl)thio]-3-{[(4-methoxyphenyl)thio]methyl}-1,2,4-thiadiazole] | 80 to 99 | 78.5 | Cur, Evi
N#CC(=NNc1cccc(C(F)(F)F)c1)C(=O)c1csc(-c2cccnc2)n1 [MBHF-hit18, 3-oxo-3-[2-(3-pyridyl)-1,3-thiazol-4-yl]-2-{2-[3-(trifluoromethyl)phenyl]hydrazono}propanenitrile] | < 80 | 77.1 | –

SMILES | inhibition at 20 µM [1] [%] | inhibition at 20 µM [2] [%] | Abnormal phenotype detected at 168 h [1]
CCCc1ccc(-c2ccc(C#N)cc2)nc1 [MBHF-hit19, 4-(5-propyl-2-pyridyl)benzonitrile] | < 80 | 76.9 | –
O=C(c1ccc(-c2cccs2)s1)c1ccc(F)cc1F [MBHF-hit20, (2,4-difluorophenyl)[5-(2-thienyl)-2-thienyl]methanone] | 100 | 76.7 | Str, Cur
O=C1c2ccccc2C(=O)N1CCSCc1cccc(C(F)(F)F)c1 [MBHF-hit21, 2-(2-{[3-(trifluoromethyl)benzyl]thio}ethyl)-1H-isoindole-1,3(2H)-dione] | 100 | 76.5 | Cur, Evi
CC12NC(=O)NC1(C)NC(=O)N2 (stereo not drawn) [MBHF-hit22, 3a,6a-dimethylperhydroimidazo[4,5-d]imidazole-2,5-dione] | < 80 | 76.3 | –
CC(C)c1cc(Br)c(NC(=O)NCc2ccco2)c(Br)c1 [MBHF-hit23, N-(2,6-dibromo-4-isopropylphenyl)-N'-(2-furylmethyl)urea] | < 80 | 74.8 | –
Cc1nc2c(cnn2-c2ccccc2)c(=O)o1 [MBHF-hit24, 6-methyl-1-phenylpyrazolo[3,4-d][1,3]oxazin-4(1H)-one] | < 80 | 74.6 | –
CCCCCc1cnc(-c2ccc(C#N)cc2)nc1 [MBHF-hit25, 4-(5-pentylpyrimidin-2-yl)benzonitrile] | 100 | 74.5 | Cur, Evi
Clc1ccc(Oc2ccnc3cc(Cl)ccc23)cc1 [MBHF-hit26, 7-chloro-4-(4-chlorophenoxy)quinoline] | 80 to 99 | 73.9 | Cur, Evi
COc1c(C(=O)NCc2ccc(Cl)cc2)csc1Cl [MBHF-hit27, 5-chloro-N-(4-chlorobenzyl)-4-methoxy-3-thiophenecarboxamide] | < 80 | 73.4 | Cur, Evi
CC(=O)c1ccc(NC(=O)CSc2nnc(-c3ccco3)n2C)cc1 [MBHF-hit28, N-(4-acetylphenyl)-2-{[5-(2-furyl)-4-methyl-4H-1,2,4-triazol-3-yl]sulfanyl}acetamide] | < 80 | 72.7 | –
CS(=O)(=O)c1ccc2ccn(O)c2c1 [MBHF-hit29, 6-(methylsulfonyl)-1H-indol-1-ol] | < 80 | 72 | –
O=S1(=O)CC=C(Cl)C1 [MBHF-hit30, 3-chloro-2,5-dihydro-1H-1lambda~6~-thiophene-1,1-dione] | < 80 | 71.5 | –
O=[N+]([O-])c1ccc2c(c1)CCN2S(=O)(=O)c1ccccc1 [MBHF-hit31, 5-nitro-1-(phenylsulfonyl)indoline] | < 80 | 71.5 | –
c1ccc(COc2ccc(CCC3OCCO3)cc2)cc1 [MBHF-hit32, 2-[4-(benzyloxy)phenethyl]-1,3-dioxolane] | < 80 | 71.1 | –
FC(F)(F)c1ccc(SCc2ccc(-c3ncns3)cc2)nc1 [MBHF-hit33, 5-[4-({[5-(trifluoromethyl)-2-pyridyl]thio}methyl)phenyl]-1,2,4-thiadiazole] | 80 to 99 | 70.3 | Cur, Evi
CSC(=NS(=O)(=O)c1ccc(C)cc1)N(C)C [MBHF-hit34, N1-[(dimethylamino)(methylthio)methylidene]-4-methylbenzene-1-sulfonamide] | < 80 | 70.3 | –
OC(CNCCNc1nccc(C(F)(F)F)n1)c1ccccc1 (stereo not drawn) [MBHF-hit35, 1-phenyl-2-[(2-{[4-(trifluoromethyl)pyrimidin-2-yl]amino}ethyl)amino]ethan-1-ol] | < 80 | 70.2 | –
